The source of these data is patent publication US20090099167A1, “Organic compounds” (Novartis Institutes for Biomedical Research, priority 2004, published 2009).

Where two headings read alike, the source gives them in different places.

One test has as its target T1, human Flt-3 (Homo sapiens, UniProt P36888).
T1 construct: expressing the amino acid region amino acids 563-993 of the cytoplasmic kinase domain of human Flt-3; made in house; host or cells: Sf9 (baculovirus)
T1 sequence (P36888 563-993): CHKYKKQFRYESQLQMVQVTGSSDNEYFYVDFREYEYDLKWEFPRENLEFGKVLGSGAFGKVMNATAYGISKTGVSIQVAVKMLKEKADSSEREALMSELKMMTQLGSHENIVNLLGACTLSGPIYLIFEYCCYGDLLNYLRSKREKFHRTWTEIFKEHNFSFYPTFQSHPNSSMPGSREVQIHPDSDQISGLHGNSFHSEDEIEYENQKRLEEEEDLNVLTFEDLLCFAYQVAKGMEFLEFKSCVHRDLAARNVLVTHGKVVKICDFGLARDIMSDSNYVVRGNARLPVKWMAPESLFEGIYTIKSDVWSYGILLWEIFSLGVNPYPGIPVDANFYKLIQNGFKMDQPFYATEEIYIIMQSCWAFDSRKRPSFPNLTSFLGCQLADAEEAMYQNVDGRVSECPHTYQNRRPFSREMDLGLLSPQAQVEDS
Briefly: Flt3 kinase inhibition, GST-Flt-3, 33P incorporation into poly(Glu,Tyr). Format: biochemical. How it is done:
The compounds to be tested are then diluted in culture medium (without FCS, with 0.1% bovine serum albumin) and added to the cells. (Controls comprise medium without test compounds). After two hours' incubation at 37° C., recombinant VEGF is added; the final VEGF concentration is 20 ng/ml). After a further five minutes incubation at 37° C., the cells are washed twice with ice-cold PBS (phosphate-buffered saline) and immediately lysed in 100 μl lysis buffer per well. The lysates are then centrifuged to remove the cell nuclei, and the protein concentrations of the supernatants are determined using a commercial protein assay (BIORAD). The lysates can then either be immediately used or, if necessary, stored at −20° C. A sandwich ELISA is carried out to measure the VEGF-R2 phosphorylation: a monoclonal antibody to VEGF-R2 (for example Mab 1495.12.14; ProQinase, Freiburg, Germany) is immobilized on black ELISA plates (OptiPlate™ HTRF-96 from Packard). The plates are then washed and the remaining free protein-binding sites are saturated with 3% TopBlock® (Juro, Cat. # TB232010) in phosphate buffered saline with Tween 20® (polyoxyethylen(20)-sorbitane monolaurate, ICI/Uniquema) (PBST). The cell lysates (20 μg protein per well) are then incubated in these plates overnight at 4° C. together with an antiphosphotyrosine antibody coupled with alkaline phosphatase (PY20:AP from Zymed). […] The luminescence is measured in a Packard Top Count Microplate Scintillation Counter. The difference between the signal of the positive control (stimulated with VEGF) and that of the negative control (not stimulated with VEGF) corresponds to VEGF-induced VEGF-R2 phosphorylation (=100%). The activity of the tested substances is calculated as percent inhibition of VEGF-induced VEGF-R2 phosphorylation, wherein the concentration of substance that induces half the maximum inhibition is defined as the IC50 (inhibitory dose for 50% inhibition). […] Flt3 kinase inhibition is determined as follows: The baculovirus donor vector pFbacG01 (GIBCO) is used to generate a recombinant baculovirus expressing the amino acid region amino acids 563-993 of the cytoplasmic kinase domain of human Flt-3. The coding sequence for the cytoplasmic domain of Flt-3 is amplified by PCR from human c-DNA libraries (Clontech). The amplified DNA fragments and the pFbacG01 vector are made compatible for ligation by digestion with BamH1 and HindIII. Ligation of these DNA fragments results in the baculovirus donor plasmid Flt-3(1.1). The production of the viruses, the expression of proteins in Sf9 cells and the purification of the GST-fused proteins are performed as follows: Production of virus: Transfer vector (pFbacG01-Flt-3) containing the Flt-3 kinase domain is transfected into the DH10Bac cell line (GIBCO) and the transfected cells are plated on selective agar plates. Colonies without insertion of the fusion sequence into the viral genome (carried by the bacteria) are blue. Single white colonies are picked and viral DNA (bacmid) is isolated from the bacteria by standard plasmid purification procedures. Sf9 or Sf21 cells (American Type Culture Collection) are then transfected in flasks with the viral DNA using Cellfectin reagent. Determination of small scale protein expression in Sf9 cells: Virus containing media is collected from the transfected cell culture and used for infection to increase its titre. Virus containing media obtained after two rounds of infection is used for large-scale protein expression. For large-scale protein expression 100 cm^2 round tissue culture plates are seeded with 5×10^7 cells/plate and infected with 1 mL of virus-containing media (approx. 5 MOIs). After 3 days the cells are scraped off the plate and centrifuged at 500 rpm for 5 min. Cell pellets from 10-20, 100 cm^2 plates, are resuspended in 50 mL of ice-cold lysis buffer (25 mMTris-HCl, pH 7.5, 2 mM EDTA, 1% NP-40, 1 mM DTT, 1 mM PMSF). The cells are stirred on ice for 15 min and then centrifuged at 5000 rpms for 20 min. […]

The next test deals with HER-1 (Homo sapiens, UniProt P00533). The test can be described thus: HER-1 kinase inhibition. Format: biochemical. The conditions noted are these: Table 5; read-out: HER-1, IC50 class.
The mark [1] stands for this setting: Table 5, read-out: Flt-3, IC50 class.

HER-1, sequence (P00533 25-1210, species assumed): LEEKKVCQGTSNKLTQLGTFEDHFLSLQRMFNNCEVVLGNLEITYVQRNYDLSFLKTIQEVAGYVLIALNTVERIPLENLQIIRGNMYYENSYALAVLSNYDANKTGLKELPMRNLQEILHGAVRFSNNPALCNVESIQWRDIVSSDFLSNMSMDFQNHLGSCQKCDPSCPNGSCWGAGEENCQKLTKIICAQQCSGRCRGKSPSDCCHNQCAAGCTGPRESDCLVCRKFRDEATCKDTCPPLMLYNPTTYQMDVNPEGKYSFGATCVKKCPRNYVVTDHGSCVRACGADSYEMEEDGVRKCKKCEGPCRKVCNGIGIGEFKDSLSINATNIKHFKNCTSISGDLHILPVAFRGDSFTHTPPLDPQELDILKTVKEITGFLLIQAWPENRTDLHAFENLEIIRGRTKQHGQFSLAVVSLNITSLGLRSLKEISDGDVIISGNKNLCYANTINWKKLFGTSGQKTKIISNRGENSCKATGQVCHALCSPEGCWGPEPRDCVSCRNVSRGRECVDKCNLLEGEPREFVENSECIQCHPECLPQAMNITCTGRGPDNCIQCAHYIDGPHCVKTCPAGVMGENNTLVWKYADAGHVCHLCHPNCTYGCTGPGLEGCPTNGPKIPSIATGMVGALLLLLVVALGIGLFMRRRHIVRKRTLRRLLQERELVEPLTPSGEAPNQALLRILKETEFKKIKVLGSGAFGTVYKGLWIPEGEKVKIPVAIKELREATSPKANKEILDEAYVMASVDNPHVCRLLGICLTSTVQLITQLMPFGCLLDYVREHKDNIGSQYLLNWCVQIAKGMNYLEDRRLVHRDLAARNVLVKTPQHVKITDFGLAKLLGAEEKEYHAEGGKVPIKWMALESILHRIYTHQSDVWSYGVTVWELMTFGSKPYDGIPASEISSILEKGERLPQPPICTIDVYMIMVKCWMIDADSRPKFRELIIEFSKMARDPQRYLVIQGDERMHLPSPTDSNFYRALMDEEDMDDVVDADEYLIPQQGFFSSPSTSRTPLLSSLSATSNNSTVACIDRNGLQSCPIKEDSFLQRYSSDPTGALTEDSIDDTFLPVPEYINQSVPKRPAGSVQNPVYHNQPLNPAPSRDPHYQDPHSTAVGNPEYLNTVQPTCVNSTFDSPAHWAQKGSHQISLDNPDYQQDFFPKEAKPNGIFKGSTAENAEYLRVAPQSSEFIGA

The IC50 is the concentration at which inhibition is half-maximal. On to `Cc1nc2c(-c3cccc(N4CC[N+](C)([O-])CC4)c3)cnn2c(N)c1-c1ccc(F)cc1` [Example 106, 6-(4-Fluoro-phenyl)-5-methyl-3-[3-(4-methyl-4-oxy-piperazin-1-yl)-phenyl]-pyrazolo[1,5-a]pyrimidin-7-ylamine], for which the half-inhibitory concentration (IC50) on human Flt-3 (setting [1]) and on HER-1 was > 10 µM in each case.

Consider `CN1CCN(c2cccc(-c3cnn4c(N)c(Cc5cccc(Br)c5)cnc34)c2)CC1` [Example 85, 6-(3-Bromo-benzyl)-3-[3-(4-methyl-piperazin-1-yl)-phenyl]pyrazolo[1,5-a]pyrimidin-7-ylamine], for which the IC50 at human Flt-3 (setting [1]) and on HER-1 was > 10 µM each time.

For `Cc1nc2c(-c3ccc(N4CCN(C)CC4)cc3)cnn2c(N)c1-c1ccc(F)c(Cl)c1` [Example 83, 6-(3-Chloro-4-fluoro-phenyl)-5-methyl-3-[4-(4-methyl-piperazin-1-yl)-phenyl]-pyrazolo[1,5-a]pyrimidin-7-ylamine], the IC50 on human Flt-3 (setting [1]) and at HER-1 was > 10 µM in each case.

With `COc1ccc(-c2cnn3c(N)c(-c4cccc(Cl)c4)c(CF)nc23)cc1OC` [Example 92, 6-(3-Chloro-phenyl)-3-(3,4-dimethoxy-phenyl)-5-fluoromethyl-pyrazolo[1,5-a]pyrimidin-7-ylamine], the half-maximal inhibitory concentration (IC50) at human Flt-3 (setting [1]) and on HER-1 was > 10 µM throughout.

In the case of `Cc1nc2c(-c3cccc(N4CCN(CCO)CC4)c3)cnn2c(N)c1-c1ccc(F)c(Cl)c1` [Example 100, 2-(4-{3-[7-Amino-6-(3-chloro-4-fluoro-phenyl)-5-methyl-pyrazolo[1,5-a]pyrimidin-3-yl]-phenyl}-piperazin-1-yl)-ethanol], the IC50 on human Flt-3 (setting [1]) and on HER-1 was > 10 µM in each case.

On to `Cc1nc2c(-c3ccc(N4CCN(C)CC4)cc3)cnn2c(N)c1-c1ccc(F)cc1` [Example 79, 6-(4-Fluoro-phenyl)-5-methyl-3-[4-(4-methyl-piperazin-1-yl)-phenyl]-pyrazolo[1,5-a]pyrimidin-7-ylamine], for which the concentration for half-maximal inhibition (IC50) on human Flt-3 (setting [1]) was > 10 µM; on HER-1, 1 to 10 µM.

Take `Cc1nc2c(-c3cccc(N4C[C@@H](C)O[C@@H](C)C4)c3)cnn2c(N)c1-c1cccc(Cl)c1` [Example 89, 6-(3-Chloro-phenyl)-3-[3-((2R,6S)-2,6-dimethyl-morpholin-4-yl)-phenyl]-5-methyl-pyrazolo[1,5-a]pyrimidin-7-ylamine]: the half-inhibitory concentration (IC50) on human Flt-3 (setting [1]) and on HER-1 was > 10 µM in each case.

`Cc1nc2c(-c3cccc(N4CCN(CCO)CC4)c3)cnn2c(N)c1-c1cccc(Cl)c1` [Example 90, 2-(4-{3-[7-Amino-6-(3-chloro-phenyl)-5-methyl-pyrazolo[1,5-a]pyrimidin-3-yl]-phenyl}-piperazin-1-yl)-ethanol]: the half-maximal inhibitory concentration (IC50) at human Flt-3 (setting [1]) and at HER-1 was > 10 µM throughout.

Take `Cc1nc2c(-c3cccc(N4CCN(CCO)CC4)c3)cnn2c(N)c1-c1ccc(F)cc1` [Example 97, 2-(4-{3-[7-Amino-6-(4-fluoro-phenyl)-5-methyl-pyrazolo[1,5-a]pyrimidin-3-yl]-phenyl}-piperazin-1-yl)-ethanol]: the half-inhibitory concentration (IC50) at human Flt-3 (setting [1]) and at HER-1 was > 10 µM each time.

As to `CN1CCN(c2cccc(-c3cnn4c(N)c(-c5ccccc5Cl)cnc34)c2)CC1` [Example 78, 6-(2-Chloro-phenyl)-3-[3-(4-methyl-piperazin-1-yl)-phenyl]-pyrazolo[1,5-a]pyrimidin-7-ylamine], on human Flt-3 (setting [1]), the IC50 is < 1 µM.

`COc1ccc(-c2cnn3c(N)c(-c4ccc(F)c(F)c4)c(C)nc23)cc1OC` [Example 99, 6-(3,4-Difluoro-phenyl)-3-(3,4-dimethoxy-phenyl)-5-methyl-pyrazolo[1,5-a]pyrimidin-7-ylamine]: the IC50 on human Flt-3 (setting [1]) and on HER-1 was > 10 µM each time.

As for `COc1ccc(-c2cnn3c(N)c(-c4cccc(Cl)c4)c(C)nc23)cc1` [Example 88, 6-(3-Chloro-phenyl)-3-(4-methoxy-phenyl)-5-methyl-pyrazolo[1,5-a]pyrimidin-7-ylamine], the IC50 at human Flt-3 (setting [1]) and on HER-1 was > 10 µM in each case.

For `CN1CCN(c2cccc(-c3cnn4c(N)c(-c5ccc(O)cc5)cnc34)c2)CC1` [Example 39, 4-{7-Amino-3-[3-(4-methyl-piperazin-1-yl)-phenyl]-pyrazolo[1,5-a]pyrimidin-6-yl}-phenol], the IC50 on human Flt-3 (Table 4, read-out: Flt-3, activity (IC50 for kinase inhibition)) is < 10 µM.

As to `Cc1nc2c(-c3cccc(N4CCN(C5CCN(C)CC5)CC4)c3)cnn2c(N)c1-c1cccc(Cl)c1` [Example 81, 6-(3-Chloro-phenyl)-5-methyl-3-{3-[4-(1-methyl-piperidin-4-yl)-piperazin-1-yl]-phenyl}-pyrazolo[1,5-a]pyrimidin-7-ylamine], the IC50 at human Flt-3 (setting [1]) and at HER-1 was > 10 µM each time.

As to `Cc1nc2c(-c3cccc([N+]4([O-])CC[N+](C)([O-])CC4)c3)cnn2c(N)c1-c1ccc(F)cc1` (stereo not shown) [Example 107, 6-(4-Fluoro-phenyl)-5-methyl-3-[3-(4-methyl-1,4-dioxy-piperazin-1-yl)-phenyl]-pyrazolo[1,5-a]pyrimidin-7-ylamine], the 50% inhibitory concentration (IC50) on human Flt-3 (setting [1]) and at HER-1 was > 10 µM throughout.

For `CN1CCN(c2ccc(-c3cnn4c(N)c(-c5ccccc5Cl)cnc34)cc2)CC1` [Example 77, 6-(2-Chloro-phenyl)-3-[4-(4-methyl-piperazin-1-yl)-phenyl]-pyrazolo[1,5-a]pyrimidin-7-ylamine], the IC50 on human Flt-3 (setting [1]) was < 1 µM.

Consider `COc1ccc(-c2cnn3c(N)c(-c4ccc(F)cc4)c(C)nc23)cc1` [Example 96, 6-(4-Fluoro-phenyl)-3-(4-methoxy-phenyl)-5-methyl-pyrazolo[1,5-a]pyrimidin-7-ylamine], for which the IC50 on human Flt-3 (setting [1]) was > 10 µM; at HER-1 it was 1 to 10 µM.

As for `Cc1nc2c(-c3cccc(N4CCC(N5CCCC5)CC4)c3)cnn2c(N)c1-c1cccc(Cl)c1` [Example 102, 6-(3-Chloro-phenyl)-5-methyl-3-[3-(4-pyrrolidin-1-yl-piperidin-1-yl)-phenyl]-pyrazolo[1,5-a]pyrimidin-7-ylamine], the IC50 at human Flt-3 (setting [1]) and on HER-1 was > 10 µM in each case.

For `Cc1nc2c(-c3cccc(N4CCN(C)CC4)c3)cnn2c(N)c1-c1ccc(F)c(Cl)c1` [Example 82, 6-(3-Chloro-4-fluoro-phenyl)-5-methyl-3-[3-(4-methyl-piperazin-1-yl)-phenyl]pyrazolo[1,5-a]pyrimidin-7-ylamine], the IC50 at human Flt-3 (setting [1]) and at HER-1 was > 10 µM in each case.

As for `CN1CCN(c2cccc(-c3cnn4c(N)c(Cc5ccccc5)cnc34)c2)CC1` [Example 91, 6-Benzyl-3-[3-(4-methyl-piperazin-1-yl)-phenyl]-pyrazolo[1,5-a]pyrimidin-7-ylamine], the concentration for half-maximal inhibition (IC50) on human Flt-3 (setting [1]) and on HER-1 was > 10 µM in each case.
